Literature values as cited in patent US7576133B2, “Methods and compositions for nasal administration of modafinil” (priority 2002, dated 2009).

For NC(=O)C[S+]([O-])C(c1ccccc1)c1ccccc1 (racemic) [Modafinil, 2-[(diphenylmethyl)sulfinyl] acetamide], the “solubility in lower alcohols” value (lower alcohols) is listed as “slightly soluble” and the solubility in water (water) is listed as “practically insoluble”.
